This note sets out measurements from patent US20040116420A1 (priority 2001, published 2004).

One data set can be described thus: Human plasma stability. Format: in vitro ADME. Here is the method: An Assay Method for Human Plasma Stability Human plasma was thawed, 200 μl each thereof was placed in each cell of a 96-well plate immediately thereafter, and 4 μl of solution of each test compound in 1 mM DMF was added thereto. A microplate reader for fluorescence absorption was used to assay changes in fluorescence, and half life was determined based on the changes.

For another data set, the system named is HSV2. Put plainly: Antiviral activity 2, plaque formation in HEL cells. It is filed as cell-based, HSV-2. Conditions: Human alphaherpesvirus 2, 72 h, 3 days. Here is the method:
(§1) An Assay Method for Antiviral Activity 2
(§2) The HEL cells were sowed on a 48-well plate and then cultured overnight. The culture supernatant was removed, and 100 μl of 2% FBS-DMEM containing 40 Plaque-forming units of HSV-1, HSV-2, VZV, or CMV was added. A viral solution Was removed 1 hour later, and 500 μl of 2% FBS-DMEM containing 0.5% methylcellulose comprising 50, 25, 12.5, 6.3, 3.2, or 1.6 μM of the test compound was added. In this case, a substance to which 2% FBS-DMEM containing 0.5% methylcellulose not comprising any test compound had been added was designated as a control. In the case of HSV-1, HSV-2, or VZV, incubation was carried out in the presence of 5% CO2 at 37° C. for 3 days. In the case of CMV, incubation was carried out under the same conditions for 14 days. After they were immobilized on formalin and stained with bromophenol blue, the amount of plaque formed was counted, and the ratio of plaque formation of the drug-containing reaction system relative to the control was determined. The concentration of the drug with which the ratio of plaque formation reaches 50% was calculated and determined to be IC50. Concerning HSV-1, an aciclovir-resistant thymidine kinase variant and a DNA polymerase variant were examined in addition to a general aciclovir-sensitive strain.

A further data set has as its system VZV. The description is as above. Format: cell-based. Conditions: Human alphaherpesvirus 3, 72 h, 3 days. As to the method: as §1, §2
A further data set relates to HSV-1. Put plainly: Inhibition of virus multiplication through combined use, plaque formation in Vero cells. Format: cell-based. Conditions: 3 days. As to the method: Activity of Inhibiting Virus Multiplication Through Combined use
The Vero cells were sowed on a 48-well plate and then cultured overnight. The culture supernatant was removed, and 100 μl of 2% FBS-DMEM containing 40 Plaque-forming units of HSV-1 was added. A viral solution was removed 1 hour later, And 500 μl of 2% FBS-DMEM containing 0.5% methylcellulose comprising the test Compound was added. In this case, a substance to which 2% FBS-DMEM containing 0.5% methylcellulose not comprising any test compound had been added was designated as a control. They were incubated in the presence of 5% CO2 at 37° C. for 3 days. After they were immobilized on formalin and stained with bromophenol blue, the Amount of plaque formed was counted, and the ratio of plaque formation of the drug-containing reaction system relative to the control was determined. Examination was carried out using the Compound No.18 in combination with aciclovir, the Compound No. 18 in combination with penciclovir, and the Compound No.18 in combination with ganciclovir. In this examination, 25, 12.5, 6.3, 3.2, 1.6, or 0 μM of the Compound No. 18 was used, and 3.2, 1.6, 0.8, 0.4, 0.2, or 0 μM of aciclovir, penciclovir, or ganciclovir was used.

Consider `Cc1c(NC(=O)OC(C)(C)C)ccc2nc(NC(C)(C)C(=O)N(C)CCc3ccccn3)oc(=O)c12` [Compound No.18, (5-methyl-2-{1-methyl-1-[methyl-(2-pyridin-2-yl-ethyl)-carbamoyl]-ethylamino}-4-oxo-4H-benzo[d][1,3]oxazin-6-yl)-carbamic Acid Tert-Butyl Ester], for which the half-life (commonly the time in which the quantity being followed falls by half) at 19.6 μM in “Human plasma stability” came to 2.83 h. In addition, the IC50 (usually the concentration needed to halve the response being measured) with HSV2 was found to be 12.5 µM; with VZV, 25 µM. Besides, the “Inhibition of multiplication of HSV-1 through combined use” value with HSV-1 (in combination with aciclovir), with HSV-1 (in combination with ganciclovir) and with HSV-1 (in combination with penciclovir) was “synergistically inhibited” each time.
